In BindingDB's records for doi:10.1016/s0006-2952(97)00433-4 (Tokyo Dental College, 1998):
Several values for one entry are separate records, joined by “and”; a condition that tells them apart may be missing. Equal entries are not always repeated.

Target: Gamma-aminobutyric acid receptor subunit alpha-1 (Rattus norvegicus, UniProt P62813)
Sequence (P62813 whole entry): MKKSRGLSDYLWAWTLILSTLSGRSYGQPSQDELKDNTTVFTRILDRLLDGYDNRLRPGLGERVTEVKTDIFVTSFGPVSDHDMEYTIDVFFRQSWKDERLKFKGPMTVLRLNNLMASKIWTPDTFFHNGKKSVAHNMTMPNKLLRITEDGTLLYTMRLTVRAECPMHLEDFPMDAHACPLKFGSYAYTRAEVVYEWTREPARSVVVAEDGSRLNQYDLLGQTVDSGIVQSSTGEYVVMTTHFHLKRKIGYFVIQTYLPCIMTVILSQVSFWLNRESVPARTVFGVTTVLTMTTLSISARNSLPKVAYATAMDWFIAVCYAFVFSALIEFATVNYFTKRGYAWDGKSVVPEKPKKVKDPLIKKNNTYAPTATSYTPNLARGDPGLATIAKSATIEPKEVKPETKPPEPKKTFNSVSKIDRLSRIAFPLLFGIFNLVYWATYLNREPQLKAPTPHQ

| Structure (SMILES) | Ki |
| --- | --- |
| CCOC(=O)c1cc2c(cn1)[nH]c1ccccc12 | 2920 nM |
| OCCN(CCO)c1nc(N2CCCCC2)c2nc(N(CCO)CCO)nc(N3CCCCC3)c2n1 [Dipyridamine] | 87.9 nM and 162 nM |
